Assay results taken from BindingDB's records for doi:10.1016/j.chembiol.2011.02.011 (University of Oklahoma, 2011).
Where a SMILES comes first, the peptide text is derived from it. [ ]: non-standard residue; d: D form. The star is where a group is joined. ξ: configuration not given here. ξR = N=C(N)NCCCC(N)C(=O)O; βNA = c1ccc2cc(N*)ccc2c1

Target: T1, Multidrug efflux pump subunit AcrB (Escherichia coli (strain B / BL21-DE3), UniProt P31224)
T1 sequence (P31224 whole entry): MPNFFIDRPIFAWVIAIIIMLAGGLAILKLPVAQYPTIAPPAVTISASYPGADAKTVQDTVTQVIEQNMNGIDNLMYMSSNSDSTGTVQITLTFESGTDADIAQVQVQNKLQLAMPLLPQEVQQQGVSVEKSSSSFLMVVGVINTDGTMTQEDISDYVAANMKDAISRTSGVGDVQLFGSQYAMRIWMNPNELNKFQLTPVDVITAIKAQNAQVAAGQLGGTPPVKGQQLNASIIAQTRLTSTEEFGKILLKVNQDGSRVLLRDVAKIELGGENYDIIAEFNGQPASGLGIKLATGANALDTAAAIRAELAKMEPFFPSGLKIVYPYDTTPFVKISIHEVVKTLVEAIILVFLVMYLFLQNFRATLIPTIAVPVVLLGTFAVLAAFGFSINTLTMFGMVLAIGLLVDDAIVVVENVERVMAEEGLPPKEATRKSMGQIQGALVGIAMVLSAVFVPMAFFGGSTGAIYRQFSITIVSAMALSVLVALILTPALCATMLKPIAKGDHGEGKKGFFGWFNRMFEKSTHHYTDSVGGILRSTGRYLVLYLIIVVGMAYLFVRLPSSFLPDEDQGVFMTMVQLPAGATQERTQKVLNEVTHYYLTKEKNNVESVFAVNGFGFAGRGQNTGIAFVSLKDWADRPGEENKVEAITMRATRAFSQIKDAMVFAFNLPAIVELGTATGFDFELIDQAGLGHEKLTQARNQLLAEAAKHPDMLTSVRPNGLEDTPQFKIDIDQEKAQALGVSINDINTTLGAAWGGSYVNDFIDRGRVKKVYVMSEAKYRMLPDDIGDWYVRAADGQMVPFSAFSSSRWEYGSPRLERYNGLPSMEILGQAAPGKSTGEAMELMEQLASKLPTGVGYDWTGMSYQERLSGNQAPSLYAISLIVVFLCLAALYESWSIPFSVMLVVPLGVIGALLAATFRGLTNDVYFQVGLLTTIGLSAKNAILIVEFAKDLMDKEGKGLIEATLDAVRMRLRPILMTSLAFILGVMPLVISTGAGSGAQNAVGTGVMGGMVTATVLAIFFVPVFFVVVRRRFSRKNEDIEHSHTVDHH
Assay: Binding Assay
Text: Binding of inhibitors and substrates to immobilized AcrB.

Row | Structure (SMILES) | Kd (pH 7.5) [µM] | Kd (pH 6) [µM]
1 | CO[C@@H]1[C@@H](OC(N)=O)[C@@H](O)[C@H](Oc2ccc3c(O)c(NC(=O)c4ccc(O)c(CC=C(C)C)c4)c(=O)oc3c2C)OC1(C)C [Coumarin-Based, DNA Gyrase Inhibitor] | 530 | –
2 | NC(N)=NCCCC(NC(=O)[C@@H](N)Cc1ccccc1)C(=O)Nc1ccc2ccccc2c1 (stereo partly drawn) [MC-207,110] (H-Phe-[ξR]-βNA) | 590 | 110
